Assay results published in US20090318500A1, “4-(2, 6-Dichloro-benzoylamino)-1H-pyrazole-3-carboxylic acid (1-methanesulphonyl-piperidin-4-yl)-amide for the Treatment of Cancer” (Astex Therapeutics limited, priority 2006, published 2009).
Where two headings read alike, the source gives them in different places.

Tests used:
[1] = test system: malignant cells from B-cell chronic lymphocytic leukemia (B-CLL); conditions: in vitro; cited from earlier work
CDK1/CyclinB = molecular target: T1, CDK1/CyclinB (Homo sapiens, UniProt P06493); assay: Activated CDK1/CyclinB kinase inhibitory activity assay; type: biochemical
T1 construct: purchased Upstate Discovery
T1 sequence (P06493 whole entry): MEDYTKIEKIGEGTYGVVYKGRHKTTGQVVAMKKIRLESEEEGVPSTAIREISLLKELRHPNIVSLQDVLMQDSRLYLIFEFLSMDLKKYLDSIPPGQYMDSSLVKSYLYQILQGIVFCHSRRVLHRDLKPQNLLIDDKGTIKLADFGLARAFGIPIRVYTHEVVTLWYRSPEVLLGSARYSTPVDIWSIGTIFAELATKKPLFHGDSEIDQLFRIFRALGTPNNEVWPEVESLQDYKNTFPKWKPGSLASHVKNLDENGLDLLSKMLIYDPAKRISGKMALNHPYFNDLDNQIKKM
T1 sequence (P14635 whole entry partner): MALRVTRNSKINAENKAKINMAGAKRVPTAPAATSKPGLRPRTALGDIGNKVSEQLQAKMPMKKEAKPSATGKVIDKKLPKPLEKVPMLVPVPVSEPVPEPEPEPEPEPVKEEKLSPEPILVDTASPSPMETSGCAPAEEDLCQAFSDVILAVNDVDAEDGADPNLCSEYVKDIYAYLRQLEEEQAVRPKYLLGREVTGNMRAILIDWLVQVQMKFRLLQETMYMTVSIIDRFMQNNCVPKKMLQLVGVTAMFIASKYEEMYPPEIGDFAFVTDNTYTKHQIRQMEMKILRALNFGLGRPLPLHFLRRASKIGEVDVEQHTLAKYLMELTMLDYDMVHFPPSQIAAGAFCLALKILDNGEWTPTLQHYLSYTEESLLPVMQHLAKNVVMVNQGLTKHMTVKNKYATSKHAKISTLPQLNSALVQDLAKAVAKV
Experimental: CDK1/CyclinB assay is identical to the CDK2/CyclinA above except that CDK1/CyclinB (Upstate Discovery) is used and the enzyme is diluted to 6.25 nM.

HCT-116 cell line = assay: Anti-proliferative activity, Alamar Blue assay; type: cell-based, human; conditions: for IC50: read-out: HCT-116 cell proliferation IC50, 72 hours with compound
Experimental: (§1) Inhibition of cell growth is measured using the Alamar Blue assay (Nociari, M. M, Shalev, A., Benias, P., Russo, C. Journal of Immunological Methods 1998, 213, 157-167). The method is based on the ability of viable cells to reduce resazurin to its fluorescent product resorufin. For each proliferation assay cells are plated onto 96 well plates and allowed to recover for 16 hours prior to the addition of inhibitor compounds for a further 72 hours. At the end of the incubation period 10% (v/v) Alamar Blue is added and incubated for a further 6 hours prior to determination of fluorescent product at 535nM ex/590nM em. In the case of the non-proliferating cell assay cells are maintained at confluence for 96 hour prior to the addition of inhibitor compounds for a further 72 hours. The number of viable cells is determined by Alamar Blue assay as before. Cell lines can be obtained from the ECACC (European Collection of cell Cultures).
as §1, with “535 nM ex/590 nM” for “535nM ex/590nM”, “EC ACC” for “ECACC”

[2] = Determination of oral bioavailability; type: in vivo; conditions: balb/c, mouse, plasma, 5 mg/kg, mice
Experimental: The oral bioavailability of the compound of formula (I) may be determined as follows.
The test compound is administered as a solution both I.V. and orally to balb/c mice at the following dose level and dose formulations; • 1 mg/kg IV formulated in 10%DMSO/90% (2-hydroxypropyl)-β-cyclodextrin (25% w/v); and • 5 mg/kg PO formulated in 10% DMSO/20% water/70% PEG200.
At various time points after dosing, blood samples are taken in heparinised tubes and the plasma fraction is collected for analysis. The analysis is undertaken by LC-MS/MS after protein precipitation and the samples are quantified by comparison with a standard calibration line constructed for the test compound. The area under the curve (AUC) is calculated from the plasma level vs time profile by standard methods. The oral bioavailability as a percentage is calculated from the following equation: […]

[3] = test system: human tumour derived cell lines; assay: Xenograft studies; type: in vivo, nude mice; conditions: sub-cutaneous xenografts, dosed orally
Description: These biomarkers include suppression of phosphorylation of substrates of the cyclin dependent kinases e.g. retinoblastoma protein. The compound is effective when given in a range of different schedules including chronic dosing for several weeks.

[4] = Vapour sorption/desorption analysis; type: physicochemical; conditions: 25 °C
Experimental: Approximately 20 mg of sample was placed into a wire-mesh vapour sorption balance pan and loaded into an ‘IgaSorp’ vapour sorption balance (Hiden Analytical Instruments) held at 25±0.1° C. The sample was then dried by maintaining a 0% humidity environment (using mass flow control apparatus) until no further weight change was recorded. Subsequently, the sample was then subjected to a ramping profile from 0-90% relative humidity (% RH) at 10% RH increments, maintaining the sample at each step until equilibration had been attained (99.5% step completion).
Upon reaching equilibration, the % RH within the apparatus was ramped to the next step and the equilibration procedure repeated. After completion of the sorption cycle, the sample was then dried using the same procedure. The weight change during the sorption/desorption cycles was then monitored, allowing for the hygroscopic nature of the sample to be determined.

[5] = test system: transcription in HCT-116 cells

IC50 (CDK1/CyclinB) | IC50 (HCT-116 cell line) | IC50 (HCT-116 cell line; listed as Compound of the Invention) | bioavailability [2] | Weight loss during initial drying ([4]; 0% RH) | Total weight increase ([4]; upon equilibration at 90% RH) | IC50 for transcription higher than IC50 for proliferation [5] | Structure (SMILES) | Apoptosis of B-CLL cells [1] | More potent anti-proliferative effect on HCT-116 compared to difluoro-analogue (HCT-116 cell line) | Effect on tumour growth in xenografts [3]
– | – | – | – | – | – | – | CC[C@H](CO)Nc1nc(NCc2ccccc2)c2ncn(C(C)C)c2n1 [CYC 202] | induce in vitro apoptosis | – | –
< 1000 nM | < 1000 nM | 110 nM | 40 to 50% | approximately 0.01% | 0.24% | ~100 fold | CS(=O)(=O)N1CCC(NC(=O)c2n[nH]cc2NC(=O)c2c(Cl)cccc2Cl)CC1 [compound of the invention, 4-(2,6-dichloro-benzoylamino)-1H-pyrazole-3-carboxylic acid (1-methanesulphonyl-piperidin-4-yl)-amide] | – | 6-7 fold | inhibition of tumour growth
– | – | – | – | – | – | – | CN1CC[C@H](c2c(O)cc(O)c3c(=O)cc(-c4ccccc4Cl)oc23)[C@H](O)C1 [Flavopiridol] | induce in vitro apoptosis | – | –
